# Results published in patent publication US9452997B2, “Piperidine and piperazine derivatives as autotaxin inhibitors” (Merck Patent GmbH, priority 2009, dated 2016).
# pIC50: −log10 of the molar value.
# Biological target: T1, Recombinant autotaxin (Homo sapiens, UniProt Q13822)
# T1 construct: made in house; host or cells: Hi5 insect cells (baculovirus)
# Test: Autotaxin assay (Amplex Red, LPC substrate)
# Assay type: biochemical
# Conditions: % of control at 1E−05 (compound concentration); uninhibited control = 100%
# Protocol: Autotaxin activity is measured indirectly by means of Amplex Red Reagent. In this course, Amplex Red is measured as fluorogenic indicator for generated H2O2. Autotaxin converts substrate lysophosphatidylcholine (LPC) to phosphocholine and lysophosphatidylic acid (LPA). After the conversion phosphocholine is reacted with alkaline phosphatase to obtain inorganic phosphate and choline. During the next step choline is oxidized with choline oxidase to yield betaine, whereby H2O2 is generated. H2O2 reacts with Amplex Red Reagent in the presence of peroxidase (Horseradish peroxidase) in an 1:1 stochiometry and yields highly fluorescent resorufin. The generated fluorescence is measured in a reaction-dependent kinetic mode in order to enable subtraction of fluorescence signals of possible other fluorescent compounds that are not part of the reaction from total measured fluorescence.
# 1.5 μl of a standard solution or of the compounds of the invention are dissolved in 20 mM Hepes pH 7.2 with maximally 7.7% DMSO in individual concentrations. The resulting solution is pre-incubated together with 10 μl (16 ng) of highly purified recombinant autotaxin in a black 384-hole microtiter plate for 30 min at 22° C.
# Thereafter, the reaction is started through the addition of 5 μL-a-lysophosphatidyl-choline (LPC), whereby the final concentration of LPC is 75 μM. The mixture is incubated for 90 min. at 37° C. After the incubation Amplex Red Reagent, peroxidase (Horseradish peroxidase) and choline oxidase are added. The fluorescence is immediately measured at a wavelength of 612 nm with an excitation wavelength of 485 nm in a “Tecan Ultra multimode” fluorescence reader. The activity of autotaxin is indirectly calculated via the amount of detected generated H2O2.
# For IC50 analysis, ten serial 1:3 dilutions starting at 30 μM for each compound were run in duplicates.
# IC50 values were calculated on normalized data. For normalization, control wells were added to each assay plate and the signal of uninhibited control wells was set to 100%, whereas the signal inhibited by 500 μM C14 LPA, (Avanti Polar Lipids, Cat#857120P) was set to 0%. Curves were fitted and IC50 values calculated by the following model using proprietory analysis software: Y=Bottom+(100−Bottom)/(1+10^((Log IC50−X)*HillSlope)) Where X is the logarithm of concentration. Y is the response; Y starts at Bottom and goes to Top with a sigmoid shape. Material
# Microtiter plate: PS-Microplate, 384-hole, small volume, black Corning, Cat#3677
# Protein: Recombinant autotaxin (baculoviral Hi5 expression)
# Substrate: L-a-lysophosphatidyl choline (chicken egg); Avanti Polar Lipids #830071P
# Standard: C14 LPA, Avanti Polar Lipids, Cat#857120P
# Detection Reagent: Amplex Red Reagent; Invitrogen #A12222; dissolved in 1.923 ml of DMSO peroxidase Type VI-A (horseradish), Sigma #P6782; dissolved in 7.45 ml of test buffer, Choline Oxidase; Sigma #C5896; dissolved in 2.47 ml test buffer
# Detection Reagent Mix: 1:100 dilution of Amplex Red Regent in test buffer
# Test buffer: 200 mM Tris-HCl, Merck, Cat #1.08219, pH 7.9; 0.1% BSA, lipid free, Roche Cat#775835
row,SMILES,% CTRL (1E−05)
1,"CS(=O)(=O)c1ccc(CCC(=O)N2CCC(N3CCN(C(=O)c4ccc5[nH]nnc5c4)CC3)CC2)cc1 [Compound 88, 1-{4-[4-(1H-Benzotriazole-5-carbonyl)-piperazin-1-yl]-piperidin-1-yl}-3-(4-methanesulfonyl-phenyl)-propan-1-one]",89%
2,"O=C(Cc1ccc(C(F)(F)F)c(F)c1)N1CCN(C2CCN(C(=O)c3ccc4[nH]nnc4c3)CC2)CC1 [Compound 102, 1-{4-[1-(1H-Benzotriazole-5-carbonyl)-piperidin-4-yl]-piperazin-1-yl}-2-(3-fluoro-4-trifluoromethyl-phenyl)-ethanone]",24%

# Same assay, conditions: recombinant autotaxin, LPC substrate, Amplex Red detection; values given as upper bounds
row,SMILES,pIC50
1,"O=C(Nc1ccc2[nH]nnc2c1)c1cccc(N2CCN(C(=O)OCc3ccc(Cl)cc3)CC2)c1 [Compound 10, 4-[3-(1H-Benzotriazol-5-ylcarbamoyl)-phenyl]-piperazine-1-carboxylic acid 4-chloro-benzyl ester]",> 4.52
2,"C[C@@H](OC(=O)N1CCN(C2CCN(C(=O)c3ccc4[nH]nnc4c3)CC2)CC1)c1cc(C(F)(F)F)cc(C(F)(F)F)c1 [Compound 169, 4-[1-(1H-Benzotriazole-5-carbonyl)-piperidin-4-yl]-piperazine-1-carboxylic acid (R)-1-(3,5-bis-trifluoromethyl-phenyl)-ethyl ester]",> 6.00
3,"O=C(OCc1cc(C(F)(F)F)cc(C(F)(F)F)c1)N1CCN(C2CCN(C(=O)c3ccc4[nH]c(=O)sc4c3)CC2)CC1 [Compound 163, 4-[1-(2-Oxo-2,3-dihydro-benzothiazole-6-carbonyl)-piperidin-4-yl]-piperazine-1-carboxylic acid 3,5-bis-trifluoromethyl-benzyl ester]",> 6.00
4,"C[C@H](OC(=O)N1CCN(C2CCN(C(=O)c3ccc4[nH]nnc4c3)CC2)CC1)c1cc(C(F)(F)F)cc(C(F)(F)F)c1 [Compound 171, 4-[1-(1H-Benzotriazole-5-carbonyl)-piperidin-4-yl]-piperazine-1-carboxylic acid (S)-1-(3,5-bis-trifluoromethyl-phenyl)-ethyl ester]",> 5.00
5,"O=C(Cc1ccc(C(F)(F)F)cc1F)N1CCN(C2CCN(C(=O)c3ccc4[nH]nnc4c3)CC2)CC1 [Compound 103, 1-{4-[1-(1H-Benzotriazole-5-carbonyl)-piperidin-4-yl]-piperazin-1-yl}-2-(2-fluoro-4-trifluoromethyl-phenyl)-ethanone]",> 4.52
6,"O=C(OCc1ccc(Cl)c(Cl)c1)N1CCN(C2CCN(C(=O)c3ccc4[nH]nnc4c3)CC2)CC1 [Compound 45, 4-[1-(1H-Benzotriazole-5-carbonyl)-piperidin-4-yl]-piperazine-1-carboxylic acid 3,4-dichloro-benzyl ester]",> 6.00
7,"O=C(CCc1cc(Cl)c(F)c(Cl)c1)N1CCN(C2CCN(C(=O)c3ccc4[nH]nnc4c3)CC2)CC1 [Compound 104, 1-{4-[1-(1H-Benzotriazole-5-carbonyl)-piperidin-4-yl]-piperazin-1-yl}-3-(3,5-dichloro-4-fluoro-phenyl)-propan-1-one]",> 5.00
8,"Cc1ccc(-c2ccccc2C(=O)N2CCC(C3CCN(C(=O)c4ccc5[nH]nnc5c4)CC3)CC2)cc1 [Compound 11, [1′-(1H-Benzotriazole-5-carbonyl)-[4,4′]bipiperidinyl-1-yl]-(4′-methyl-biphenyl-2-yl)-methanone]",> 6.00
9,"O=C(CCc1ccc(C(F)(F)F)cc1)N1CCC(N2CCN(C(=O)c3ccc4[nH]c(=O)oc4c3)CC2)CC1 [Compound 49, 6-(4-{1-[3-(4-Trifluoromethyl-phenyl)-propionyl]-piperidin-4-yl}-piperazine-1-carbonyl)-3H-benzooxazol-2-one]",> 6.00
10,"O=C(OCc1ccc(SC(F)(F)F)cc1)N1CCN(C2CCN(C(=O)c3ccc4[nH]nnc4c3)CC2)CC1 [Compound 37, 4-[1-(1H-Benzotriazole-5-carbonyl)-piperidin-4-yl]-piperazine-1-carboxylic acid 4-trifluoromethylsulfanyl-benzyl ester]",> 6.00
11,"O=C(OCc1ccc(Cl)cc1)N1CCN(C2CCN(C(=O)c3ccc4[nH]nnc4c3)CC2)CC1 [Compound 42, 4-[1-(1H-Benzotriazole-5-carbonyl)-piperidin-4-yl]-piperazine-1-carboxylic acid 4-chloro-benzyl ester]",> 6.00
12,"O=C(NC1CCC(N2CCN(C(=O)OCc3cc(Cl)cc(C(F)(F)F)c3)CC2)CC1)c1ccc2[nH]nnc2c1 (stereo not drawn) [Compound 187, 4-{4-[(1H-Benzotriazole-5-carbonyl)-amino]-cyclohexyl}-piperazine-1-carboxylic acid 3-chloro-5-trifluoromethyl-benzyl ester]",> 6.00
13,"O=C(OCc1cc(Cl)cc(C(F)(F)F)c1)N1CCN(C2CCN(S(=O)(=O)c3ccc4[nH]c(=O)oc4c3)CC2)CC1 [Compound 183, 4-[1-(2-Oxo-2,3-dihydro-benzooxazole-6-sulfonyl)-piperidin-4-yl]-piperazine-1-carboxylic acid 3-chloro-5-trifluoromethyl-benzyl ester]",> 5.00
14,"Cc1cc(CCC(=O)N2CCN(C3CCN(C(=O)c4ccc5[nH]nnc5c4)CC3)CC2)cc(C)c1F [Compound 106, 1-{4-[1-(1H-Benzotriazole-5-carbonyl)-piperidin-4-yl]-piperazin-1-yl}-3-(4-fluoro-3,5-dimethyl-phenyl)-propan-1-one]",> 5.00
15,"O=C(Cc1ccc2[nH]nnc2c1)N1CCC(N2CCN(C(=O)Cc3cc(C(F)(F)F)cc(C(F)(F)F)c3)CC2)CC1 [Compound 141, 2-(1H-Benzotriazol-5-yl)-1-(4-{4-[2-(3,5-bis-trifluoromethyl-phenyl)-acetyl]-piperazin-1-yl}-piperidin-1-yl)-ethanone]",> 5.00
16,"O=C(CCc1cc(Cl)c(F)c(Cl)c1)N1CCC(N2CCN(C(=O)c3ccc4[nH]nnc4c3)CC2)CC1 [Compound 133, 1-{4-[4-(1H-Benzotriazole-5-carbonyl)-piperazin-1-yl]-piperidin-1-yl}-3-(3,5-dichloro-4-fluoro-phenyl)-propan-1-one]",> 5.00
17,"O=C(OCc1ccc(Cl)c(OC(F)(F)F)c1)N1CCN(C2CCN(C(=O)c3ccc4[nH]nnc4c3)CC2)CC1 [Compound 145, 4-[1-(1H-Benzotriazole-5-carbonyl)-piperidin-4-yl]-piperazine-1-carboxylic acid 4-chloro-3-trifluoromethoxy-benzyl ester]",> 5.00
18,"O=C(CCc1ccc(C(F)(F)F)cc1)N1CCC(C2CCN(C(=O)c3ccc4[nH]nnc4c3)CC2)CC1 [Compound 22, 1-[1′-(1H-Benzotriazole-5-carbonyl)-[4,4′]bipiperidinyl-1-yl]-3-(4-trifluoromethyl-phenyl)-propan-1-one]",> 6.00
19,"O=C(OCc1ccc(C(F)(F)F)c(F)c1F)N1CCC(N2CCN(C(=O)c3ccc4[nH]nnc4c3)CC2)CC1 [Compound 113, 4-[1-(1H-Benzotriazole-5-carbonyl)-piperidin-4-yl]-piperazine-1-carboxylic acid 2,3-dilfuoro-4-trifluoromethyl-benzyl ester]",> 6.00
20,"O=C(OCc1cc(Cl)cc(C(F)(F)F)c1)N1CCN(C2CCN(C(=O)c3ccc4[nH]nnc4c3)CC2)CC1 [Compound 95, 4-[1-(1H-Benzotriazole-5-carbonyl)-piperidin-4-yl]-piperazine-1-carboxylic acid 3-chloro-5-trifluoromethyl-benzyl ester]",> 6.00
21,"O=C(Nc1ccc(Cl)c(C(F)(F)F)c1)C(=O)N1CCN(C2CCN(C(=O)c3ccc4[nH]nnc4c3)CC2)CC1 [Compound 72, 2-{4-[1-(1H-Benzotriazole-5-carbonyl)-piperidin-4-yl]-piperazin-1-yl}-N-(4-chloro-3-trifluoromethyl-phenyl)-2-oxo-acetamide]",> 5.00
22,"O=C(NCCc1ccncc1)C1CC(=O)N(C2CCN(C(=O)OCc3cc(Cl)cc(Cl)c3)CC2)C1 (stereo not drawn) [Compound 28, 4-[2-Oxo-4-(2-pyridin-4-yl-ethylcarbamoyl)-pyrrolidin-1-yl]-piperidine-1-carboxylic acid 3,5-dichloro-benzyl ester]",> 5.00
